In this test the target is T1, human GluN1/GluN2B NMDA receptors (Homo sapiens, UniProt Q13224).
T1 construct: expressed in transfected cells
The test can be described thus: Cell-based calcium flux (FLIPR) assay on cloned human NR1/NR2B ion channels expressed in mammalian cells (standard and HTS buffer variants).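 Further: stable Tet-On inducible cell line, Ca2+ influx triggered by glutamate at about EC40 plus 10 µM glycine, fluorescent dye read-out over 5 min, normalized to control wells.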 In general terms: Calcium assays in cells follow changes in intracellular calcium, usually with a dye or a luminescent sensor.

[1] abbreviates: standard assay buffer (0.5 mM MgCl2 in dye loading buffer; 137 mM NaCl, 4 mM KCl in assay buffer), human GluN1/GluN2B, read-out: NR2B IC50 (μM) standard assay.
Setting [2] is: standard assay buffer (0.5 mM MgCl2 dye loading; 137 mM NaCl, 4 mM KCl assay buffer), human GluN1/GluN2B cells, read-out: NR2B IC50 (μM) standard assay.

These results are taken from patent US11759455B2, “Substituted 1H-imidazo[4,5-b]pyridin-2(3H)-ones and their use as GLUN2B receptor modulators” (JANSSEN PHARMACEUTICA NV, priority 2016, dated 2023).

The structures appear in SMILES notation. Where two headings read alike, the source gives them in different places.

T1 sequence (Q13224 27-1484, other chains not shown): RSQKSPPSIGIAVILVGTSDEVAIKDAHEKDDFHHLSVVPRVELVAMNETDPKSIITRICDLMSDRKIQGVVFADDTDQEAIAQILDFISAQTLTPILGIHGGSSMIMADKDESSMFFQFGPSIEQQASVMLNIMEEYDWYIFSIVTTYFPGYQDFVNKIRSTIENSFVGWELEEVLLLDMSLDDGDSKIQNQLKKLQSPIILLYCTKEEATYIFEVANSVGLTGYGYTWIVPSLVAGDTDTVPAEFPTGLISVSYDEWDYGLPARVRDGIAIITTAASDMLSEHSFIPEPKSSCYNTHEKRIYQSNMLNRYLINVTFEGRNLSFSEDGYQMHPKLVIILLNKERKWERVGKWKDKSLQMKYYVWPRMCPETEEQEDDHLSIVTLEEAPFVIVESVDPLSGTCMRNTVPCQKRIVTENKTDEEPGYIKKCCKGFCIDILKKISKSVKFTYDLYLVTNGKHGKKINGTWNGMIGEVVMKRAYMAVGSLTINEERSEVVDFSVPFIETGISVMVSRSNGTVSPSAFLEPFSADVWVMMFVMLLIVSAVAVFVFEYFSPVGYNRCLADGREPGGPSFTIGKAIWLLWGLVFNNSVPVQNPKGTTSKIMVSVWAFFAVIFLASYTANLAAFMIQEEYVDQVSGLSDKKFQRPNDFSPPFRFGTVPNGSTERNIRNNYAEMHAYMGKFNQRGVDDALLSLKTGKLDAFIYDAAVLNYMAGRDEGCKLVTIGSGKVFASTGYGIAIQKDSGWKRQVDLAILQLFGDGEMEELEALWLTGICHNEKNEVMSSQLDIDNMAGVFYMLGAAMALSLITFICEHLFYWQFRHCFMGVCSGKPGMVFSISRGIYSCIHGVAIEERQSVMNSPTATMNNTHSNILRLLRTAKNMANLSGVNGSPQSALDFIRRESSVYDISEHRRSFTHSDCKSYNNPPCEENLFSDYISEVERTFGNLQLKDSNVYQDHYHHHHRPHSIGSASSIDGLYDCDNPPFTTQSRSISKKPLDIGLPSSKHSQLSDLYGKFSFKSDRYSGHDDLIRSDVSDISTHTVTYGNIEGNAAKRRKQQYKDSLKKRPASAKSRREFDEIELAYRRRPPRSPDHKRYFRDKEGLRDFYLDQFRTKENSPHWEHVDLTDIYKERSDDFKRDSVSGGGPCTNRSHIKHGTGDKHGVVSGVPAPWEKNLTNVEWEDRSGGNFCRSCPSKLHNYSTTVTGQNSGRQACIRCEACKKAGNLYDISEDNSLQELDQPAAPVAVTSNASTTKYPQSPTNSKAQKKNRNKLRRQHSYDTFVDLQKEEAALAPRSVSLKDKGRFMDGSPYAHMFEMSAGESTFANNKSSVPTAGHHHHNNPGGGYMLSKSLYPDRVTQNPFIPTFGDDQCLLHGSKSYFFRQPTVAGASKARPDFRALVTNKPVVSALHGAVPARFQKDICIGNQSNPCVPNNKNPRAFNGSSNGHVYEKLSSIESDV

Consider `Cn1c(=O)n(Cc2csnn2)c2cc(-c3ccc(C(F)F)s3)cnc21` [Example 562, 6-[5-(Difluoromethyl)-2-thienyl]-3-methyl-1-(thiadiazol-4-ylmethyl)imidazo[4,5-b]pyridin-2-one], for which the IC50 (in general, the midpoint of a concentration-inhibition curve) under setting [1] amounted to 0.166 µM.

As to `Cc1c(F)ccc(-c2cnc3c(c2)n(Cc2cncc(F)c2)c(=O)n3C)c1F` [Example 341, 6-(2,4-Difluoro-3-methyl-phenyl)-1-[(5-fluoro-3-pyridyl)methyl]-3-methyl-imidazo[4,5-b]pyridin-2-one], the IC50 under setting [1] amounted to 0.081 µM.

With `Cc1cc(-c2cnc3[nH]c(=O)n(Cc4cnccc4C)c3c2)ccc1F` [Example 277, 6-(4-Fluoro-3-methyl-phenyl)-1-[(4-methyl-3-pyridyl)methyl]-3H-imidazo[4,5-b]pyridin-2-one], the half-maximal inhibitory concentration (IC50) under setting [2] turned out to be 0.077 µM.

As to `N#Cc1ccccc1Cn1c(=O)[nH]c2ncc(-c3cccc(C(F)(F)F)c3)cc21` [Example 213, 2-[[2-Oxo-6-[3-(trifluoromethyl)phenyl]-3H-imidazo[4,5-b]pyridin-1-yl]methyl]benzonitrile], the IC50 under setting [2] was 0.375 µM.

With `Cn1c(=O)n(Cc2cncc(Cl)c2)c2cc(-c3ccc(C(F)(F)F)s3)cnc21` [Example 373, 1-[(5-Chloro-3-pyridyl)methyl]-3-methyl-6-[5-(trifluoromethyl)-2-thienyl]imidazo[4,5-b]pyridin-2-one], under setting [1], the IC50 came out at 9.72 µM.

For `Cn1c(=O)n(Cc2cccnn2)c2cc(-c3cc(C(F)F)ccc3F)cnc21` [Example 385, 6-(5-(Difluoromethyl)-2-fluorophenyl)-3-methyl-1-(pyridazin-3-ylmethyl)-1,3-dihydro-2H-imidazo[4,5-b]pyridin-2-one], under setting [1], the IC50 was 0.653 µM.

As for `Cn1c(=O)n(Cc2cccnn2)c2cc(-c3ccc(F)c(OC(F)F)c3)cnc21` [Example 542, 6-[3-(Difluoromethoxy)-4-fluoro-phenyl]-3-methyl-1-(pyridazin-3-ylmethyl)imidazo[4,5-b]pyridin-2-one], under setting [1], the half-inhibitory concentration (IC50) came to 0.016 µM.

`Cn1c(=O)n(Cc2cncnc2)c2cc(-c3cccc(C(F)(F)F)c3)cnc21` [Example 247, 3-Methyl-1-(pyrimidin-5-ylmethyl)-6-[3-(trifluoromethyl)phenyl]imidazo[4,5-b]pyridin-2-one]: the concentration for half-maximal inhibition (IC50) under setting [2] was found to be 0.133 µM.

Regarding `O=c1[nH]c2ncc(-c3cccc(C(F)(F)F)c3)cc2n1CCN1CC(F)(F)C1` [Example 167, 1-[2-(3,3-Difluoroazetidin-1-yl)ethyl]-6-[3-(trifluoromethyl)phenyl]-3H-imidazo[4,5-b]pyridin-2-one], under setting [2], the IC50 is 0.158 µM.

For `Cn1c(=O)n(Cc2cccnn2)c2cc(-c3cccc(Cl)c3)cnc21` [Example 376, 6-(3-Chlorophenyl)-3-methyl-1-(pyridazin-3-ylmethyl)imidazo[4,5-b]pyridin-2-one], the IC50 under setting [1] is 0.056 µM.

On to `Cc1cccc(-c2cnc3[nH]c(=O)n(CCN4CC(F)C4)c3c2)c1C` [Example 182, 6-(2,3-Dimethylphenyl)-1-[2-(3-fluoroazetidin-1-yl)ethyl]-3H-imidazo[4,5-b]pyridin-2-one], for which the IC50 under setting [2] is 1.74 µM.

Consider `Cc1cc(-c2cnc3[nH]c(=O)n(Cc4cncc(F)c4)c3c2)ccc1Cl` [Example 306, 6-(4-Chloro-3-methyl-phenyl)-1-[(5-fluoro-3-pyridyl)methyl]-3H-imidazo[4,5-b]pyridin-2-one], for which the IC50 under setting [2] stood at 0.086 µM.

For the compound `O=c1[nH]c2ncc(-c3cccc(C(F)(F)F)c3)cc2n1CCNC1CC1` [Example 148, 1-[2-(Cyclopropylamino)ethyl]-6-[3-(trifluoromethyl)phenyl]-3H-imidazo[4,5-b]pyridin-2-one], the IC50 under setting [2] was found to be 0.505 µM.

Turning to `COCCNC(=O)Cn1c(=O)[nH]c2ncc(-c3cccc(C(F)(F)F)c3)cc21` [Example 442, N-(2-Methoxyethyl)-2-[2-oxo-6-[3-(trifluoromethyl)phenyl]-3H-imidazo[4,5-b]pyridin-1-yl]acetamide], where the note is “HTS assay buffer (1.5 mM MgCl2 in dye loading buffer; 150 mM NaCl, 3 mM KCl in assay buffer), human GluN1/GluN2B, read-out: NR2B IC50 (μM) HTS assay”, the half-maximal inhibitory concentration (IC50) is 0.197 µM.

As for `Cn1c(=O)n(CC(=O)N2CC(F)C2)c2cc(-c3csc(C(F)(F)F)n3)cnc21` [Example 109, 1-[2-(3-Fluoroazetidin-1-yl)-2-oxo-ethyl]-3-methyl-6-[2-(trifluoromethyl)thiazol-4-yl]imidazo[4,5-b]pyridin-2-one], under setting [2], the IC50 was determined as 0.04 µM.

For the compound `Cc1cccc(-c2cnc3c(c2)n(Cc2cncc(Cl)c2)c(=O)n3C)c1F` [Example 371, 1-[(5-Chloro-3-pyridyl)methyl]-6-(2-fluoro-3-methyl-phenyl)-3-methyl-imidazo[4,5-b]pyridin-2-one], the concentration for half-maximal inhibition (IC50) under setting [1] is 0.19 µM.

As to `O=c1[nH]c2ncc(-c3cccc(F)c3)cc2n1Cc1cccnc1` [Example 290, 6-(3-fluorophenyl)-1-(3-pyridylmethyl)-3H-imidazo[4,5-b]pyridin-2-one], the IC50 under setting [2] turned out to be 0.065 µM.

Turning to `Cn1c(=O)n(CC(=O)N2CCC2)c2cc(-c3ccc(F)c(C(F)F)c3)cnc21` [Example 584, 1-[2-(Azetidin-1-yl)-2-oxo-ethyl]-6-[3-(difluoromethyl)-4-fluoro-phenyl]-3-methyl-imidazo[4,5-b]pyridin-2-one], under setting [1], the IC50 was determined as 0.024 µM.

Regarding `O=C(Cn1c(=O)[nH]c2ncc(-c3cccc(C(F)(F)F)c3)cc21)N1CCC1` [Example 25, 1-[2-(Azetidin-1-yl)-2-oxo-ethyl]-6-[3-(trifluoromethyl)phenyl]-3H-imidazo[4,5-b]pyridin-2-one], under setting [2], the IC50 is 0.07 µM.

For `Cc1c(F)ccc(-c2cnc3[nH]c(=O)n(CCN4CCC4)c3c2)c1C` [Example 171, 1-[2-(Azetidin-1-yl)ethyl]-6-(4-fluoro-2,3-dimethyl-phenyl)-3H-imidazo[4,5-b]pyridin-2-one], under setting [2], the IC50 turned out to be 0.21 µM.

Regarding `COC1CN(C(=O)Cn2c(=O)[nH]c3ncc(-c4cccc(C(F)(F)F)c4)cc32)C1` [Example 191, 1-[2-(3-Methoxyazetidin-1-yl)-2-oxo-ethyl]-6-[3-(trifluoromethyl)phenyl]-3H-imidazo[4,5-b]pyridin-2-one], the IC50 under setting [2] was found to be 0.132 µM.

As to `Cc1ccc(-c2cnc3c(c2)n(Cc2cn(C)nn2)c(=O)n3C)s1` [Example 553, 3-Methyl-6-(5-methyl-2-thienyl)-1-[(1-methyltriazol-4-yl)methyl]imidazo[4,5-b]pyridin-2-one], the IC50 under setting [1] was 0.726 µM.

Consider `COc1cccc(-c2cnc3[nH]c(=O)n(CC(=O)c4cccs4)c3c2)c1` [Example 602, 6-(3-Methoxyphenyl)-1-[2-oxo-2-(2-thienyl)ethyl]-3H-imidazo[4,5-b]pyridin-2-one], for which the IC50 under setting [1] stood at 0.204 µM.

`Cc1noc(Cn2c(=O)[nH]c3ncc(-c4ccc(F)cc4)cc32)n1` [Example 140, 6-(4-Fluorophenyl)-1-[(3-methyl-1,2,4-oxadiazol-5-yl)methyl]-3H-imidazo[4,5-b]pyridin-2-one]: the IC50 under setting [2] was 0.105 µM.

With `Cc1cccc(-c2cnc3[nH]c(=O)n(CC(=O)N4CC(F)(F)C4)c3c2)c1` [Example 580, 1-[2-(3,3-Difluoroazetidin-1-yl)-2-oxo-ethyl]-6-(m-tolyl)-3H-imidazo[4,5-b]pyridin-2-one], under setting [1], the IC50 was found to be 0.026 µM.

Consider `Cc1cccc(-c2cnc3c(c2)n(CC(=O)N2CC(F)(F)C2)c(=O)n3C)c1F` [Example 418, 1-[2-(3,3-Difluoroazetidin-1-yl)-2-oxo-ethyl]-6-(2-fluoro-3-methyl-phenyl)-3-methyl-imidazo[4,5-b]pyridin-2-one], for which the IC50 under setting [1] was determined as 0.019 µM.
